Data taken from patent publication US20250032477A1, “COMPOUNDS, PHARMACEUTICAL COMPOSITIONS, AND METHODS FOR THE TREATMENT, PREVENTION, OR MANAGEMENT OF HYPERPROLIFERATIVE DISORDERS” (VINCERX PHARMA GMBH, priority 2021, published 2025).
Like-named read-outs stand apart in the source and are kept apart here.

Legend:
SUM149 [1] = assay: Cytotoxicity in vitro in the presence and absence of elastase (MTT); assay type: cell-based; settings: SUM149 cells, 72 h, MTT
Method: (§1) Cultivation of cells was performed according to standard procedures with the media recommended by the provider. The cells, in a total volume of 100 μL, were seeded in a 96-well plate with a white bottom (#3610). After a 24 h incubation period at 37° C. and […], the medium was exchanged by adding 90 μL fresh medium. The treatment started by adding the test compound in 10 μL of culture medium to the cells in triplicates. Concentrations ranging from 10^−5 M to 10^−13 M were chosen. Two identically treated sets of samples were prepared. One set was treated with the test compound alone, whereas to the second set the compound and 10 nM elastase was added followed by a 72 h incubation period at 37° C. and 5% CO2. The proliferation was detected using the MTT assay (ATCC). At the end of the incubation period the MTT reagent was added to all samples for 4 h. Lysis of the cells followed by addition of the detergent was done overnight. The formed dye was detected at 570 nm. The proliferation of untreated but otherwise identically handled cells was define as the […].

in vitro = settings: human, Caco-2
Method: (§2) Caco-2: The cell permeability of a substance can be investigated by means of in vitro testing in a flux assay using Caco-2 cells [M. D. Troutman and D. R. Thakker, Pharm. Res. 20 (8), 1210-1224 (2003)]. For this purpose, the cells were cultured for 15-16 days on 24-well filter plates. For the determination of permeation, the respective test substance was applied in a HEPES buffer to the cells either apically (A) or basally (B) and incubated for 2 hours. After 0 hours and after 2 hours, samples were taken from the cis and trans compartments. The samples were separated by HPLC (Agilent 1200, Böblingen, Germany) using reverse phase columns. The HPLC system was coupled via a Turbo Ion Spray Interface to a Triple Quadropol mass spectrometer API 4000 (AB SCIEX Deutschland GmbH, Darmstadt, Germany). The permeability was evaluated on the basis of a Papp value, which was calculated using the formula published by Schwab et al. [D. Schwab et al., J. Med. Chem. 46, 1716-1725 (2003)]. A substance was classified as actively transported when the ratio of Papp (B-A) to Papp (A-B) (efflux ratio) was >2 or <0.5. Compounds with an efflux ratio of 0.5-2 are considered not actively transported. In Table 5, reference compounds are provided for comparison. Ref 1 is exatecan mesylate, Ref 2 is DXd, and Ref 3 is 10,11-methylenedioxy-camptothecin (FL118).

NCI H292 [2] = assay: Cytotoxicity in vitro in the presence and absence of elastase (MTT); assay type: cell-based, human; settings: Homo sapiens, NCI H292 cells, 72 h, MTT
Method: as §1

HT29 [3] = assay: as above; assay type: cell-based, human; settings: Homo sapiens, HT-29, HT29 cells, 72 h, MTT
Method: as §1

786-O [4] = assay: as above; assay type: cell-based, human; settings: Homo sapiens, 786-0, 786-O cells, 72 h, MTT
Method: as §1

SUM149 [5] = assay: Cytotoxicity in vitro in the presence and absence of legumain; assay type: cell-based
NCI H292 [6] = assay: as above; assay type: cell-based; settings: Homo sapiens
HT29 [7] = assay: as above; assay type: cell-based; settings: Homo sapiens
SUM149 [8] = assay: Cytotoxicity assay (Version 2), automated, AC50, with or without elastase; assay type: cell-based; settings: SUM149 cells, Version 2, activity concentration at −50%
Method: as §1
(§3) The Cytotoxicity assay (Version 2) was performed as above described. Some changes were applied as the assays were performed in an automated fashion and the IC50 values determination was changed. Here the change in metabolic activity of the cells, in percent, was calculated by normalization of the measured values to the absorbance values of medium containing wells without cells (=−100%) and the absorbance of the DMSO-treated cells (=0%). AC50 values (activity concentration at −50%) were determined by means of a 4 parameter Hill-fit using GeneData Screener software.

NCI H292 [9] = assay: as above; assay type: cell-based, human; settings: Homo sapiens, NCI H292 cells, Version 2, activity concentration at −50%
Method: as §1, §3

HT29 [10] = assay: as above; assay type: cell-based, human; settings: Homo sapiens, HT-29, HT29 cells, Version 2, activity concentration at −50%
Method: as §1, §3

786-O [11] = assay: as above; assay type: cell-based, human; settings: Homo sapiens, 786-0, 786-O cells, Version 2, activity concentration at −50%
Method: as §1, §3

Caco-2 cells = assay: Caco-2 flux assay for cellular permeability; settings: Caco-2 cells; for Caco-2 Flux Papp A-B: apical to basal, 2 hours, HEPES buffer; for Caco-2 Flux Efflux ratio: ratio of Papp (B-A) to Papp (A-B), actively transported when >2 or <0.5
Method: as §2

[12] = with 10 nM elastase, read-out: SUM149 IC50 w elastase
[13] = without elastase, read-out: SUM149 IC50 w/o
[14] = with 10 nM elastase, read-out: NCI H292 IC 50 w elastase
[15] = without elastase, read-out: NCI H292 IC 50 w/o
[16] = with 10 nM elastase, read-out: HT29 IC50 w elastase
[17] = without elastase, read-out: HT29 IC50 w/o
[18] = with 10 nM elastase, read-out: 786-O IC50 w elastase
[19] = without elastase, read-out: 786-O IC50 w/o

Row | Compound | IC50 (SUM149 [1]; [12]) | IC50 (SUM149 [1]; [13]) | Papp A→B at 2 h (in vitro) | efflux ratio at 2 h (in vitro) | IC50 (NCI H292 [2]; [14]) | IC50 (NCI H292 [2]; [15]) | IC50 (HT29 [3]; [16]) | IC50 (HT29 [3]; [17]) | IC50 (786-O [4]; [18]) | IC50 (786-O [4]; [19]) | Caco-2 Flux Papp A-B (Caco-2 cells) | Caco-2 Flux Efflux ratio (Caco-2 cells) | also measured
1 | CC[C@@]1(O)C(=O)OCc2c1cc1n(c2=O)Cc2c-1nc1cc(F)c(C)c3c1c2[C@@H](NC(C)=O)CC3 [Compound 7, N-[(1S,9S)-9-ethyl-5-fluoro-9-hydroxy-4-methyl-10,13-dioxo-2,3,9,10,13,15-hexahydro-1H,12H-benzo[de]pyrano[3′,4′:6,7]indolizino[1,2-b]quinolin-1-yl]acetamide] | < 0.01 nM | < 0.01 nM | 0.1 to 0.9 ×10⁻⁶ cm/s | > 2 | 0.01 to 0.1 nM | 0.01 to 0.1 nM | 0.01 to 0.1 nM | 0.01 to 0.1 nM | 0.01 to 0.1 nM | 0.01 to 0.1 nM | – | – | –
2 | CC[C@@]1(O)C(=O)OCc2c1cc1n(c2=O)Cc2c-1nc1cc(F)c(C)c3c1c2[C@@H](NC(=O)C(F)(F)F)CC3 [Compound 8, N-[(1S,9S)-9-ethyl-5-fluoro-9-hydroxy-4-methyl-10,13-dioxo-2,3,9,10,13,15-hexahydro-1H,12H-benzo[de]pyrano[3′,4′:6,7]indolizino[1,2-b]quinolin-1-yl]-2,2,2-trifluoroacetamide] | < 0.01 nM | < 0.01 nM | 1 to 9.9 ×10⁻⁶ cm/s | > 2 | 0.01 to 0.1 nM | 0.01 to 0.1 nM | 0.01 to 0.1 nM | 0.01 to 0.1 nM | 0.01 to 0.1 nM | 0.01 to 0.1 nM | – | – | –
3 | CC[C@@]1(O)C(=O)OCc2c1cc1n(c2=O)Cc2c-1nc1cc(F)c(C)c3c1c2[C@@H](NC(=O)Cc1ccncc1)CC3 [Compound 9, N-[(1S,9S)-9-ethyl-5-fluoro-9-hydroxy-4-methyl-10,13-dioxo-2,3,9,10,13,15-hexahydro-1H,12H-benzo[de]pyrano[3′,4′:6,7]indolizino[1,2-b]quinolin-1-yl]-2-(pyridin-4-yl)acetamide] | 0.01 to 0.1 nM | 0.01 to 0.1 nM | 0.1 to 0.9 ×10⁻⁶ cm/s | > 2 | 0.1 to 1 nM | 0.1 to 1 nM | 0.1 to 1 nM | 1.1 to 10 nM | 0.1 to 1 nM | 0.1 to 1 nM | – | – | –
4 | CC[C@@]1(O)C(=O)OCc2c1cc1n(c2=O)Cc2c-1nc1cc(F)c(C)c3c1c2[C@@H](NC(=O)[C@H](CC(N)=O)NC(=O)Cc1ccncc1)CC3 [Compound 10, N^1-[(1S,9S)-9-ethyl-5-fluoro-9-hydroxy-4-methyl-10,13-dioxo-2,3,9,10,13,15-hexahydro-1H,12H-benzo[de]pyrano[3′,4′:6,7]indolizino[1,2-b]quinolin-1-yl]-N^2-[(pyridin-4-yl)acetyl]-L-aspartamide] | – | – | – | – | – | – | – | – | – | – | – | – | IC50 (SUM149 [5]; SUM149, read-out: SUM149 IC50 w legumain): > 100 nM; IC50 (SUM149 [5]; SUM149, read-out: SUM149 IC50 w/o): > 100 nM; IC50 (NCI H292 [6]; NCI-H292, read-out: NCI H292 IC50 w legumain): > 100 nM; IC50 (NCI H292 [6]; NCI-H292, read-out: NCI H292 IC50 w/o): > 100 nM; IC50 (HT29 [7]; HT-29, read-out: HT29 IC50 w legumain): > 100 nM; IC50 (HT29 [7]; HT-29, read-out: HT29 IC50 w/o): > 100 nM
5 | CCN[C@H]1CCc2c(C)c(F)cc3nc4c(c1c23)Cn1c-4cc2c(c1=O)COC(=O)[C@]2(O)CC.O=C(O)C(F)(F)F [Compound 16, trifluoroacetic acid (1S,9S)-9-ethyl-1-(ethylamino)-5-fluoro-9-hydroxy-4-methyl-1,2,3,9,12,15-hexahydro-10H,13H-benzo[de]pyrano[3′,4′:6,7] indolizino[1,2-b]quinoline-10,13-dione (1/1)] | 0.01 to 0.1 nM | 0.01 to 0.1 nM | 10 to 99.9 ×10⁻⁶ cm/s | 0.5 to 2 | 0.1 to 1 nM | 0.1 to 1 nM | 0.1 to 1 nM | 0.1 to 1 nM | 0.1 to 1 nM | 0.1 to 1 nM | – | – | –
6 | CCN(CC)[C@H]1CCc2c(C)c(F)cc3nc4c(c1c23)Cn1c-4cc2c(c1=O)COC(=O)[C@]2(O)CC [Compound 17, (1S,9S)-1-(diethylamino)-9-ethyl-5-fluoro-9-hydroxy-4-methyl-1,2,3,9,12,15-hexahydro-10H,13H-benzo[de]pyrano[3′,4′:6,7]indolizino[1,2-b]quinoline-10,13-dione] | 0.1 to 1 nM | 0.1 to 1 nM | 10 to 99.9 ×10⁻⁶ cm/s | 0.5 to 2 | 1.1 to 10 nM | 1.1 to 10 nM | 1.1 to 10 nM | 1.1 to 10 nM | 1.1 to 10 nM | 1.1 to 10 nM | – | – | AC50 (SUM149 [8]; with elastase, read-out: SUM149 AC50 +elastase): 1.1 to 10 nM; AC50 (SUM149 [8]; without elastase, read-out: SUM149 AC50 −elastase): 1.1 to 10 nM; AC50 (NCI H292 [9]; with elastase, read-out: NCI H292 AC50 +elastase): 1.1 to 10 nM; AC50 (NCI H292 [9]; without elastase, read-out: NCI H292 AC50 −elastase): 1.1 to 10 nM; AC50 (HT29 [10]; with elastase, read-out: HT29 AC50 +elastase): 11 to 100 nM; AC50 (HT29 [10]; without elastase, read-out: HT29 AC50 −elastase): 11 to 100 nM; AC50 (786-O [11]; with elastase, read-out: 786-O AC50 +elastase): 1.1 to 10 nM; AC50 (786-O [11]; without elastase, read-out: 786-O AC50 −elastase): 1.1 to 10 nM
7 | CC[C@@]1(O)C(=O)OCc2c1cc1n(c2=O)Cc2c-1nc1cc(F)c(C)c3c1c2[C@@H](NC(=O)CO)CC3 [Ref 2, DXd, reference compound] | – | – | – | – | – | – | – | – | – | – | AA (AA: 1-9) | A (A: actively transported) | –
8 | CC[C@@]1(O)C(=O)OCc2c1cc1n(c2=O)Cc2cc3cc4c(cc3nc2-1)OCO4 [Ref 3, 10,11-methylenedioxy-camptothecin, reference compound] | – | – | – | – | – | – | – | – | – | – | CC (CC: 100-999) | B (B: not actively transported) | –
9 | exatecan mesylate [Ref 1, reference compound] | – | – | – | – | – | – | – | – | – | – | CC (CC: 100-999) | B (B: not actively transported) | –
